Data from ChEMBL document CHEMBL3745710, “Synthesis, antibacterial and anti-MRSA activity, in vivo toxicity and a structure-activity relationship study of a quinoline thiourea” (Bioorg Med Chem Lett, 2016).
Converted amounts (≈) assume the structure as drawn. The source made the active and inactive calls. No cut-off for these calls is given here.

What was measured:
Staphylococcus aureus [1] = assay: Antibacterial activity against Staphylococcus aureus NCIMB 12702 after 24 hrs by serial dilution method; assay type: functional; details: Staphylococcus aureus, NCIMB 12702, 24 h
Escherichia coli = assay: Antibacterial activity against Escherichia coli NCIMB 9485 after 24 hrs by serial dilution method; assay type: functional; details: NCIMB 9485, 24 h
Pseudomonas aeruginosa = assay: Antibacterial activity against Pseudomonas aeruginosa ATCC 10145 after 24 hrs by serial dilution method; assay type: functional, organism-based
Staphylococcus aureus [2] = assay: Antibacterial activity against methicillin-resistant Staphylococcus aureus after 24 hrs by serial dilution method; assay type: functional
[3] = Toxicity in sixth development stage of Galleria mellonella larvae assessed as survival rate at 1000 ug/ml after 24 hrs; assay type: organism-based; details: in vivo
[4] = Toxicity in sixth development stage of Galleria mellonella larvae assessed as survival rate at 100 ug/ml after 24 hrs; assay type: organism-based; details: in vivo
[5] = Toxicity in sixth development stage of Galleria mellonella larvae assessed as survival rate at 50 ug/ml after 24 hrs; assay type: organism-based; details: in vivo
[6] = Toxicity in sixth development stage of Galleria mellonella larvae assessed as survival rate at 10 ug/ml after 24 hrs; assay type: organism-based; details: in vivo
[7] = Toxicity in sixth development stage of Galleria mellonella larvae assessed as survival rate at 1 ug/ml after 24 hrs; assay type: organism-based; details: in vivo
[8] = Toxicity in sixth development stage of Galleria mellonella larvae assessed as survival rate at 1000 ug/ml after 48 hrs; assay type: organism-based; details: in vivo
[9] = Toxicity in sixth development stage of Galleria mellonella larvae assessed as survival rate at 100 ug/ml after 48 hrs; assay type: organism-based; details: in vivo
[10] = Toxicity in sixth development stage of Galleria mellonella larvae assessed as survival rate at 50 ug/ml after 48 hrs; assay type: organism-based; details: in vivo
[11] = Toxicity in sixth development stage of Galleria mellonella larvae assessed as survival rate at 10 ug/ml after 48 hrs; assay type: organism-based; details: in vivo
[12] = Toxicity in sixth development stage of Galleria mellonella larvae assessed as survival rate at 1 ug/ml after 48 hrs; assay type: organism-based; details: in vivo
[13] = Toxicity in sixth development stage of Galleria mellonella larvae assessed as survival rate at 1000 ug/ml after 72 hrs; assay type: organism-based; details: in vivo
[14] = Toxicity in sixth development stage of Galleria mellonella larvae assessed as survival rate at 100 ug/ml after 72 hrs; assay type: organism-based; details: in vivo
[15] = Toxicity in sixth development stage of Galleria mellonella larvae assessed as survival rate at 50 ug/ml after 72 hrs; assay type: organism-based; details: in vivo
[16] = Toxicity in sixth development stage of Galleria mellonella larvae assessed as survival rate at 10 ug/ml after 72 hrs; assay type: organism-based; details: in vivo
[17] = Toxicity in sixth development stage of Galleria mellonella larvae assessed as survival rate at 1 ug/ml after 72 hrs; assay type: organism-based; details: in vivo
Galleria mellonella = assay: Toxicity in sixth development stage of Galleria mellonella larvae assessed as larvae pupation at 1 to 1000 ug/ml after 7 days relative to control; assay type: organism-based; details: in vivo, 168 h

SMILES | MIC50 (Staphylococcus aureus [1]) | MIC90 (Staphylococcus aureus [1]) | MIC50 (Escherichia coli) | MIC90 (Escherichia coli) | MIC (Pseudomonas aeruginosa) | MIC50 (Staphylococcus aureus [2]) | MIC90 (Staphylococcus aureus [2]) | survival at 24 h [3] | survival at 24 h [4] | survival at 24 h [5] | survival at 24 h [6] | survival at 24 h [7] | survival at 48 h [8] | survival at 48 h [9] | survival at 48 h [10] | survival at 48 h [11] | survival at 48 h [12] | survival at 72 h [13] | survival at 72 h [14] | survival at 72 h [15] | further results
CCN(CC)CCNC(=S)Nc1cc(C(F)(F)F)cc(C(F)(F)F)c1 | 96.9 µM (≈ 37.5 µg/mL) | 194 µM (≈ 75.1 µg/mL) | 96.9 µM (≈ 37.5 µg/mL) | 194 µM (≈ 75.1 µg/mL) | inactive | 13.5 µM (≈ 5.22 µg/mL) | 23.5 µM (≈ 9.11 µg/mL) | 100% | 100% | 100% | 100% | 100% | 100% | 100% | 100% | 100% | 100% | 100% | 100% | 100% | MIC80 (Staphylococcus aureus [1]): 129 µM (≈ 50 µg/mL); MIC80 (Escherichia coli): 129 µM (≈ 50 µg/mL); survival at 72 h [16]: 100%; survival at 72 h [17]: 100%; Activity (Galleria mellonella): Non-toxic
C=C[C@H]1CN2CC[C@H]1C[C@H]2CNC(=S)Nc1cc(C(F)(F)F)cc(C(F)(F)F)c1 | 42.9 µM (≈ 18.8 µg/mL) | 85.8 µM (≈ 37.5 µg/mL) | 42.9 µM (≈ 18.8 µg/mL) | 85.8 µM (≈ 37.5 µg/mL) | inactive | 20.7 µM (≈ 9.07 µg/mL) | 31.4 µM (≈ 13.8 µg/mL) | 100% | 100% | 100% | 100% | 100% | 100% | 100% | 100% | 100% | 100% | 100% | 100% | 100% | MIC80 (Staphylococcus aureus [1]): 85.8 µM (≈ 37.5 µg/mL); MIC80 (Escherichia coli): 85.8 µM (≈ 37.5 µg/mL); survival at 72 h [16]: 100%; survival at 72 h [17]: 100%; Activity (Galleria mellonella): Non-toxic
C=C[C@H]1CN2CC[C@H]1C[C@H]2[C@@H](NC(=S)Nc1cc(C(F)(F)F)cc(C(F)(F)F)c1)c1ccnc2ccccc12 | 8.32 µM (≈ 4.7 µg/mL) | 16.6 µM (≈ 9.38 µg/mL) | 5.54 µM (≈ 3.13 µg/mL) | 8.32 µM (≈ 4.7 µg/mL) | inactive | 10.8 µM (≈ 6.1 µg/mL) | 18.1 µM (≈ 10.2 µg/mL) | 100% | 100% | 100% | 100% | 100% | 100% | 100% | 100% | 100% | 100% | 100% | 100% | 100% | survival at 72 h [16]: 100%; survival at 72 h [17]: 100%; Activity (Galleria mellonella): Non-toxic
